Data taken from patent publication EP0352609A1 (BIORESEARCH S.p.A., priority 1988, dated 1990).

Legend:
[1] = test system: antigen SRBC (red sheep corpuscles); assay: Delayed hypersensitivity against cell antigen (DTH); type: in vivo, Mice B6 D2 F1; conditions: 1 gamma i.p. on day of immunisation
Text: The following experimental tests were used: • 1. Primary antibody response against thymus-dependent antigen, evaluated as the number of plaque-forming splenic cells (PFC) Mice B6 D2 F1, antigen SRBC (red sheep corpuscles) Jerne N.K and Nordin A.A., Plaque formation in ager by single antibody-producing cells Science, 140, 405, 1963. Table A • 2. Delayed hypersensitivity against cell antigen (DTH) Mice B6 D2 F1, antigen SRBC (red sheep corpuscles) Lagrange P.H., Mackaness G.B and Miller T.E., potentiation of T-cell-mediated immunity by selective suppression of antibody formation with cyclophosphamide. J. Exp. Med., 139, 1529, 1974. Table B • 3. Macrophage cytotoxic activity against target tumour induced by Corynebacterium Parvum Mice C57 BL/6; tumour L1210 pretagged with ⁵¹Cr; attack:target ratio 80:1; tumouricide activity evaluated as release of tagging compound and expressed as % of specific cytotoxicity. Herscowitr H.B. et al., Eds., Manual of macrophage methodology, M. Dekker 1981. Table C • 4. Splenic NK (natural cytotoxic cell) activity potentiated with polynucleotide (Poly I:C) Mice C57 BL/6; tumour YAC-1; evaluation as in test 3. Herbeman R.B. Ed., "Natural cell-mediated immunity against tumors". Academic Press, 1980. Table D […]

[2] = test system: plaque-forming splenic cells (PFC); assay: Primary antibody response against thymus-dependent antigen (PFC, Jerne plaque assay); type: in vivo, Mice B6 D2 F1; conditions: 25 gamma i.p. 6 days before immunisation
Text: The following experimental tests were used: • 1. Primary antibody response against thymus-dependent antigen, evaluated as the number of plaque-forming splenic cells (PFC) Mice B6 D2 F1, antigen SRBC (red sheep corpuscles) Jerne N.K and Nordin A.A., Plaque formation in ager by single antibody-producing cells Science, 140, 405, 1963. Table A • 2. Delayed hypersensitivity against cell antigen (DTH) Mice B6 D2 F1, antigen SRBC (red sheep corpuscles) Lagrange P.H., Mackaness G.B and Miller T.E., potentiation of T-cell-mediated immunity by selective suppression of antibody formation with cyclophosphamide. J. Exp. Med., 139, 1529, 1974. Table B • 3. Macrophage cytotoxic activity against target tumour induced by Corynebacterium Parvum Mice C57 BL/6; tumour L1210 pretagged with ⁵¹Cr; attack:target ratio 80:1; tumouricide activity evaluated as release of tagging compound and expressed as % of specific cytotoxicity. Herscowitr H.B. et al., Eds., Manual of macrophage methodology, M. Dekker 1981. Table C • 4. Splenic NK (natural cytotoxic cell) activity potentiated with polynucleotide (Poly I:C) Mice C57 BL/6; tumour YAC-1; evaluation as in test 3. Herbeman R.B. Ed., "Natural cell-mediated immunity against tumors". Academic Press, 1980. Table D
The treatment was carried out during the inductive stage of the response.

| Substance | DTH response (Table B, continuation; column head not given) [1] | % increase in PFC/spleen vs. control [2] |
| --- | --- | --- |
| Muramyl dipeptide | 50 |  |
| Tuftsin |  | 65% |
